These are literature values, as cited in US6479236B2, “Genotyping the human UDP-glucuronosyltransferase 1 (UGT1) gene” (DNA Sciences Laboratories, Inc., priority 1998, dated 2002).

Structures are written as SMILES.

One data set has as its target UGT1*6 (Homo sapiens, UniProt P19224). As to conditions: substrate of UGT1*6.
For the next data set, the target named is T1, UGT1*7 (Homo sapiens, UniProt O60656).
T1 sequence (O60656 26-530): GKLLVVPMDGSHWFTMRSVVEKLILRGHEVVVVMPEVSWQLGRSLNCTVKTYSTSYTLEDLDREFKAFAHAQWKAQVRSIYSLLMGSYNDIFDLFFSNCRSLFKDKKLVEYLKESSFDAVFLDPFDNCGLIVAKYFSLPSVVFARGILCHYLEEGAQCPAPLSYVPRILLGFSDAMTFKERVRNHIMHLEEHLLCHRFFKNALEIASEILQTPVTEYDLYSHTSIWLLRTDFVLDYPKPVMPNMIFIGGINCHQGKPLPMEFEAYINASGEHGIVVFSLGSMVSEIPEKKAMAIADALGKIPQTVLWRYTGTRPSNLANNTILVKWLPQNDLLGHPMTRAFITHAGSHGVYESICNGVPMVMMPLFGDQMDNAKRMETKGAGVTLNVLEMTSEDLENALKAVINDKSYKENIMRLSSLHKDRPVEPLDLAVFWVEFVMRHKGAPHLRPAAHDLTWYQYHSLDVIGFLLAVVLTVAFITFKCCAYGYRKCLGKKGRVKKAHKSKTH
As to conditions: substrate of UGT1*7.

The target of the next data set is T2, UGT1*1 (Homo sapiens, UniProt P22309).
T2 sequence (P22309 26-533): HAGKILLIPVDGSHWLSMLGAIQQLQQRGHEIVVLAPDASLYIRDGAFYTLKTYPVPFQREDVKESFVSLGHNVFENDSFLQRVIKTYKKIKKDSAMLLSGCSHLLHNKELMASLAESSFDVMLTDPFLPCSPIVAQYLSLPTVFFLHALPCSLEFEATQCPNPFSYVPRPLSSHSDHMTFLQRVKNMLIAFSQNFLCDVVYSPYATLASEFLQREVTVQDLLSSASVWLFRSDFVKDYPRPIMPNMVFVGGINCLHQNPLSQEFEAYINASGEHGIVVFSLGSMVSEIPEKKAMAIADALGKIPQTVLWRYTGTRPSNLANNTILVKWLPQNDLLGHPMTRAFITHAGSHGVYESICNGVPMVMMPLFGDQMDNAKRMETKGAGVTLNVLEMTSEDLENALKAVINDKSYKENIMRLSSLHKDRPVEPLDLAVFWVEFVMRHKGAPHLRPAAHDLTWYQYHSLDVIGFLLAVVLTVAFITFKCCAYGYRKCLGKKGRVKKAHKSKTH
The conditions noted are these: for Km: substrate of UGT1*1; for binding to UGT1*1 compared with bilirubin: relative to the endogenous substrate bilirubin.

As usually defined, the Km is the concentration of substrate that gives half-maximal velocity. As to `CC(=O)Nc1ccc(O)cc1` [Acetaminophen], the Km was 2 mM at UGT1*6 and 50000 µM at UGT1*7.

Turning to `C=CC1=C(C)/C(=C/c2[nH]c(Cc3[nH]c(/C=C4\NC(=O)C(C)=C4C=C)c(C)c3CCC(=O)O)c(CCC(=O)O)c2C)NC1=O` [Bilirubin], the Km at UGT1*1 was 24 µM.

In the case of `CCCCCCCCOC(=O)c1cc(O)c(O)c(O)c1` [Octyl gallate], the “binding to UGT1*1 compared with bilirubin” value at UGT1*1 was “more readily binds”. The Km is 162 µM at UGT1*1 and 158 µM on UGT1*7.

Consider `CC(C)c1cccc(C(C)C)c1O` [Propofol], for which the Michaelis constant (Km) on UGT1*7 is 172 µM.

For `O=C(O)[C@H]1O[C@H](OP(=O)(O)OP(=O)(O)OC[C@H]2O[C@@H](n3ccc(=O)[nH]c3=O)[C@H](O)[C@@H]2O)[C@H](O)[C@@H](O)[C@@H]1O` [UDPGA], the Km on UGT1*1 and at UGT1*7 was 410 µM in each case.

In the case of `Cc1cc(O)c2c(c1)C(=O)c1cc(O)cc(O)c1C2=O` [emodin], the “binding to UGT1*1 compared with bilirubin” value on UGT1*1 is “more readily binds”.
